What was measured:
[1] = target: T1, BlaR-CTD receptor (Bacillus licheniformis, UniProt P12287); assay: 3-minute rapid test: BlaR-CTD coupled to gold beads, membrane test device, milk; format: binding; settings: test carried out in 3 minutes, 47° C.; positive when 1st band less intense than 2nd band
T1 construct: uses the BlaR-CTD receptor coupled to gold beads
Protocol: (§1) This example illustrates the detection in milk of antibiotics containing a β-lactam ring, which are controlled by the health authorities. The test described in this example uses the BlaR-CTD receptor coupled to gold beads which serve as labelling agents, and uses a support in the form of a test device comprising a solid support to which membranes are attached.
7 samples of fresh milk containing 0; 1; 2; 3; 4; 5 and 6 ppb of penicillin G, respectively, are prepared. Each of these solutions is then analyzed in the following way:
(§2) A 200 μl aliquot sample of milk and 45.27 μl of solution prepared in Example 1.1.3 are taken and placed in a glass flask. This mixture is incubated for 1 minute at 47° C. A test device is taken and placed vertically in the glass flask such that the first end of the test device is in contact with the mixture and such that the second end rests on the wall of the glass flask. The mixture is left to migrate on the test device, while incubating the assembly for 2 minutes at 47° C.
(§3) An intensity value ranging from 0 to 10 is attributed to the bands detected, the value 10 being given to the most intense band and the value 0 being given to the least intense band. According to this scale, a value of 6 is assigned to the reference band. The intensity of the signal observed in the first band is inversely proportional to the amount of penicillin G present in the sample.
(§4) In this example, when the first band has an intesity less than that of the second band, the test is considered as being positive.

[2] = target: T1, BlaR-CTD receptor; assay: 5-minute test: BlaR-CTD coupled to gold beads, membrane test device, milk; format: binding; settings: 47° C.; for concentration detected in a sample of milk: test carried out in 5 minutes, positive when 1st band less intense than 2nd band; for Intensity 1st band: 5-minute test, scale 0 to 10, reference band 6
Protocol: as §1
6 samples of fresh milk containing 0; 2; 4; 6; 8 and 10 ppb of cloxacillin, respectively, are prepared. Each of these solutions is then analyzed in the following way.
as §2, with “3 minutes” for “1 minute”
as §3, with “cloxacillin” for “penicillin G”
as §4

[3] = target: T1, BlaR-CTD receptor; assay: 9-minute test: BlaR-CTD coupled to gold beads, membrane test device, milk; format: binding; settings: test carried out in 9 minutes, 47° C.; positive when 1st band less intense than 2nd band
Protocol: as §1
6 samples of fresh milk containing 0; 4; 6; 8; 10 and 12 ppb of cephapirin, respectively, are prepared. Each of these solutions is then analyzed in the following way.
as §2, with “7 minutes” for “1 minute”
as §3, with “cephapirin” for “penicillin G”
as §4

[4] = test system: protein isolated from an antibiotic-sensitive microorganism, such as Bacillus stearothermophilus; settings: Example 1 of European Patent Application 593 112; cited from earlier work
[5] = target: T2, BlaR-CTD receptor in the form of two fusion proteins with alkaline phosphatase and peroxidase (Bacillus licheniformis, UniProt P12287); assay: Example 3: BlaR-CTD fusion proteins with alkaline phosphatase and peroxidase, cephalosporin C microplate, milk; format: binding; settings: absorbance at 405 nm, 47° C., at the control thresholds required by the US authorities
T2 construct: uses the BlaR-CTD receptor in the form of two fusion proteins with alkaline phosphatase and peroxidase, respectively; alkaline phosphatase, chemically coupled (Boehringer-Mannheim 1464752); peroxidase, chemically coupled (Boehringer-Mannheim 1428861)
From the text: This example illustrates the detection in milk of 3 antibiotics containing a β-lactam ring which are controlled by the health authorities. The test described in this example uses the BlaR-CTD receptor in the form of two fusion proteins with alkaline phosphatase and peroxidase, respectively, and uses a support in the form of a microplate.
Polystyrene microplates with high protein adsorption, of the brand name NUNK (Immuno Plate: Maxisorp type) or of the brand name GREINER (microlon 600, reference 705071), are used. The microplate cuvettes are washed with 150 mM, pH 7.2 PBS buffer. Next, an aliquot of the solution prepared in Example 3.3.1. is incubated for 24 hours at 4° C. in the cuvettes. After incubation, the cuvettes are washed three times with 150 mM, pH 7.2 PBS buffer, 0.1% Tween-20. The tube is then saturated for two hours at 20° C. with 150 mM, pH 7.2 PBS saturation buffer, 5% BSA. After washing three times with washing buffer, the tubes are dried and stored at 4° C. away from moisture.
For the cuvettes intended for the BlaR-CTD-alkaline phosphatase recognition agent, the washing buffer used is 1 M, pH 9.8 diethanolamine, 0.5 mM MgCl2: for the cuvettes intended for the BlaR-CTD-peroxidase recognition agent, the washing buffer used is 50 mM, pH 5 potassium phosphate.
1.4 picomol of labelled recognition agent are incubated in the presence of 100 μl of doped milk for 5 minutes at 47° C. The milk is transferred using a pipette into a cuvette which has been pretreated as indicated in Example 2.3. The milk is then incubated for 2 minutes at 47° C. […] The plate is then placed in an automatic spectrophotometer for ELISA plates, the wavelength being set at 405 nm.

T1 sequence (P12287 354-601): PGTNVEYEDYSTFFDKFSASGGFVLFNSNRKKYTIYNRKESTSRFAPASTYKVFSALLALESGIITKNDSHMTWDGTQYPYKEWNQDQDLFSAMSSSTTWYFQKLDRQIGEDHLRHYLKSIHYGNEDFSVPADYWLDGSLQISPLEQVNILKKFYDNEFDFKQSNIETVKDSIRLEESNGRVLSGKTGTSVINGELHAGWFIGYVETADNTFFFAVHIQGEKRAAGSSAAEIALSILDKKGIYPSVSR
T2 sequence (P12287 354-601): as above

| SMILES | concentration detected in a sample of milk [1] | concentration detected in a sample of milk [2] | concentration detected in a sample of milk [3] [ppb] | other results |
| --- | --- | --- | --- | --- |
| CC1(C)S[C@@H]2[C@H](NC(=O)[C@H](N)c3ccccc3)C(=O)N2[C@H]1C(=O)O [ampicillin] | 5 ppb | 4 ppb | 4 | concentration detected [4]: 10 ppb |
| Cc1onc(-c2ccccc2Cl)c1C(=O)N[C@@H]1C(=O)N2[C@@H]1SC(C)(C)[C@@H]2C(=O)O [cloxacillin] | less than 10 ppb | less than 4 ppb | 4 | Intensity 1st band ([2]; 2 ppb cloxacillin in milk): 6; Intensity 1st band ([2]; 4 ppb cloxacillin in milk): 5; Intensity 1st band ([2]; 6 ppb cloxacillin in milk): 3; Intensity 1st band ([2]; 8 ppb cloxacillin in milk): 3; Intensity 1st band ([2]; 10 ppb cloxacillin in milk): 3; concentration detected in milk [5]: 10 ppb |
| CO/N=C(\C(=O)N[C@@H]1C(=O)N2C(C(=O)[O-])=C(C[n+]3cccc4c3CCCC4)CS[C@H]12)c1csc(N)n1 [cefquinone] |  | less than 20 ppb |  |  |
| CC1(C)S[C@@H]2[C@H](NC(=O)[C@H](N)c3ccc(O)cc3)C(=O)N2[C@H]1C(=O)O [amoxicillin] | 5 ppb | 4 ppb | 4 | concentration detected [4]: 5 ppb |
| Cc1onc(-c2ccccc2)c1C(=O)N[C@@H]1C(=O)N2[C@@H]1SC(C)(C)[C@@H]2C(=O)O [oxacillin] |  | 8 ppb |  |  |
| Cc1nnc(SCC2=C(C(=O)O)N3C(=O)[C@@H](NC(=O)Cn4cnnn4)[C@H]3SC2)s1 [cefazoline] |  | 60 ppb | 45 |  |
| CCOc1ccc2ccccc2c1C(=O)N[C@@H]1C(=O)N2[C@@H]1SC(C)(C)[C@@H]2C(=O)O [nafcillin] |  | 20 ppb |  |  |
| Cc1onc(-c2c(Cl)cccc2Cl)c1C(=O)N[C@@H]1C(=O)N2[C@@H]1SC(C)(C)[C@@H]2C(=O)O [dicloxacillin] |  | 8 ppb |  |  |

— US8106155B2, “Test kit for determining process for determining antibiotics containing a beta-lactam ring in a biological fluid” (Neogen Corporation, priority 1998, dated 2012)
